“Also recorded” adds a separate entry of the source.
Columns and labels:
[1] = system: HeLa (cervical cancer) cells; assay: MTT cell survival assay in HeLa cells; format: cell-based, human
Experimental: Thus, appropriate doses of the molecular promoters were selected by initially screening for toxicity. […] The viability of cells was measured by MTT assay, one of the most commonly used cell viability assays. This method involves the conversion of MTT (3-(4,5-dimethylthiazol-2-yl)-2,5-diphenyltetrazolium bromide) to an insoluble formazan by metabolically-active cells (live cells). Using a solubilizing agent, the formazan is dissolved and its absorbance measured, giving indication to the number of cells that survive.
Cells were cultured in 96-well plates (5×10^3 cells/well) for 24 h. The culture medium was replaced by new culture medium and incubated for 24 h with varying drug concentrations. After the drug treatment, cells were replaced with new medium containing 1.2 mM MTT (Sigma) and incubated for 4 h. The medium was then removed and the formazan crystals solubilized by 100 μL DMSO. The surviving fraction was determined by measuring the absorbance at 540 nm using a Multiskan Spectrum UV/Vis microplate reader (Thermo Scientific), which is directly proportional to the number of viable cells.

[2] = system: NIH-OVCAR-3 (HTB-161) cisplatin-resistant human ovarian cancer cells; assay: APO-BrdU TUNEL DNA fragmentation assay (flow cytometry) in HTB-161 cells; format: cell-based
Experimental: The method based on terminal deoxyribonucleotidyl transferase (TdT)-mediated dUTP nick-end labelling was used to determine the cell apoptosis. […] DNA fragmentation was measured by using the APO-BrdU TUNEL assay. […] After trypsinized, the cells were washed with PBS, were processed for labeling with the deoxythymidine analog 5-bromo-2′-deoxyuridine 5′-triphosphate (BrdUTP), and were incubated with an Alexa Fluor 488 dye-labeled anti-BrdU antibody and propidium iodide by the use of an APO-BrdU™ TUNEL Assay Kit (Invitrogen) as per manufacturer's protocol. The labeled cells were analyzed by flow cytometry.

[3] = system: HeLa (cervical cancer) cells; assay: APO-BrdU TUNEL DNA fragmentation assay (flow cytometry) in HeLa cells; format: cell-based, human; conditions: for cells with DNA fragmentation (BrdU-positive): 48 h
Experimental: DNA fragmentation was detected using a standard apoptosis assay, APO-BrdU TUNEL, which utilizes the fact that DNA strand breaks expose a large number of 3′-OH ends, which act as a starting point for terminal deoxynucleotidyl transferase (TdT) to add deoxyribonucleotides. The break sites are labeled by the addition of BrdUTP in the presence of the TdT enzyme. An anti-BrdU antibody conjugated with a fluorescent molecule is added to detect the strand breaks by measuring their fluorescence intensities using flow cytometry. The cell cycle distribution can also be detected simultaneously from the ordinate axis of the generated dot plot (with the BrdU-content on the y-axis), where the events with fluorescence intensity above the background indicate the cells with fragmented DNA (within upper box).
Cells were cultured in 25 cm^2 flasks (˜8×10^7 cells/flask) for 24 h. The culture medium was replaced by new medium and incubated for 48 h with varying drug concentrations. Both floating and adherent cells were harvested by trypsinization and fixed using 1% paraformaldehyde for 30 minutes. Cells were then permeabilized using 70% ice-cold ethanol for at least 24 h at −20° C. Samples were prepared for DNA fragmentation measurements using the APO-BrdU DNA Fragmentation Assay (Invitrogen). To label the DNA, ethanol was removed and cells were resuspended in 50 μL of TUNEL reaction buffer containing terminal deoxynucleotidyl transferase and BrdUTP for 1 h at 37° C., shaking every 15 min. After overnight room temperature incubation, the cells were then incubated with Alexa Fluor 488-conjugated BrdUTP-antibody for 30 min at room temperature. Cells were also stained with propidium iodide (5 μg/mL) and incubated with RNase A for 30 min at room temperature to determine the total cellular DNA content. Samples were then analyzed by a Becton-Dickinson FACSVantage SE flow cytometer in pulse processing mode (10 000 cells per sample). Computational analyses were performed using FCS Express software (De Novo Software, Los Angeles, Calif.) to obtain FL1-H versus FL2-A dot plots (log versus linear, respectively), gating on front scatter (FSC) versus side scatter (SSC) to eliminate debris, as well as FL2-A versus FL2-W to eliminate doublets. Experiments were performed independently at least 3 times
DNA fragmentation was measured by using the APO-BrdU TUNEL assay.

[4] = system: NIH-OVCAR-3 (HTB-161) cisplatin-resistant human ovarian cancer cells; assay: MTT cell viability assay in cisplatin-resistant HTB-161 cells; format: cell-based; conditions: for effect of combination with cisplatin on viability and drug resistance: cisplatin combined with electron donor (100 μM TMPD)
Experimental: Briefly, HTB-161 cells were plated at a density of 7×10^3 cells/well in 96-well plates. […] After incubation for specified times at 37° C. in a humidified incubator, 20 μL of MTT (5 mg/mL in PBS) were added to each well, and cells were incubated for a further 4 h. After removal of the medium, 100 μL DMSO was added to each well. The absorbance was recorded on a microplate reader at the wavelength of 540 nm.

[5] = system: NIH-OVCAR-3 (HTB-161) cisplatin-resistant human ovarian cancer cells; assay: Cell cycle analysis by flow cytometry in HTB-161 cells; format: cell-based; conditions: cisplatin alone or with 100 μM TMPD, 24 h
Experimental: HTB-161 cells were plated at a density of 2×10^5 per well on six-well plates. […] The cells were trypsinized, washed twice with chilled PBS, and centrifuged. The cell pellet was resuspended in 70% ethanol at −20° C. overnight. The cells were centrifuged at 1,000 rpm for 5 min; the pellet was washed twice with chilled PBS, suspended in 500 μL PBS, and incubated with RNase (20 μg/mL final concentration) at 25° C. for 30 min and with propidium iodide (50 μg/mL final concentration) for an additional 30 minutes. The cells were analyzed by flow cytometry. Flow cytometry was done with a FACS vantage SE (Becton Dickinson). A minimum of 10,000 cells per sample were counted and the DNA histograms were further analyzed by using FCS Express software for cell cycle analysis.

[6] = system: Plasmid DNA [pGEM 3Zf(−), 3197 kp]; assay: Agarose gel electrophoresis of plasmid DNA damage; format: biochemical, Escherichia Coli; conditions: cisplatin alone, up to 3.0 mM
Description: The gel electrophoresis was used for quantitative measurements of plasmid DNA damage, characterizing single-strand breaks (SSBs), double-strand breaks (DBSs) and crosslinks (CLs). We also used the γH2AX DNA damage assay (Invitrogen) to detect DSBs of genomic DNA in cancer cells. Briefly, DNA damaging radicals induce phosphorylation of histone variant H2AX (Ser139) forming DNA foci at the site of DNA DSBs. Phosphorylated H2AX aids in the recruitment of proteins responsible for DSB repair.
Aliquots equivalent to 96 ng DNA were removed from the solutions for gel electrophoresis. All aliquots were analyzed with a standard agarose gel electrophoresis method, namely, on 1% neutral TAE agarose gel in TAE running buffer. The gel was prestained with 1 μg/ml ethidium bromide.

Compound | toxicity of TMPD alone (cell survival / viability) ([1]; TMPD alone, up to 100 μM) | DNA fragmentation (BrdU positive cells) ([2]; 100 μM TMPD alone) [%] | cells with DNA fragmentation (BrdU-positive) ([3]; 100 μM TMPD alone) [%] | cell viability ([4]; 100 μM TMPD alone) | effect of combination with cisplatin on viability and drug resistance [4] | toxicity of ICG alone (cell survival) ([1]; ICG alone, up to 200 μM) | distribution of cells in the cell cycle [5] | killing of HeLa cells ([1]; 10 and 20 μM cisplatin alone) [%] | cell survival rates ([1]; CDDP alone, 24 h) | DNA strand breaks in plasmid DNA [6] | DNA fragmentation (BrdU positive cells) ([2]; 50 μM cisplatin without or with 100 μM TMPD) [%] | cells with DNA fragmentation (BrdU-positive) ([3]; 10 μM CDDP without or with 100 μM TMPD) [%] | cells with DNA fragmentation (BrdU-positive) ([3]; 25 μM CDDP without or with 100 μM TMPD) [%] | cells with DNA fragmentation (BrdU-positive) ([3]; 50 μM CDDP without or with 100 μM TMPD) [%] | cell cycle arrest ([3]; HeLa cells, CDDP as single agent (lower doses) or with TMPD) | resistance of HTB-161 cells to cisplatin ([4]; cisplatin alone, 200-300 uM)
CN(C)c1ccc(N(C)C)cc1 [TMPD, N,N, N′,N′-tetramethyl-p-phenylene diamine] | very mild toxicity; also recorded: only slightly decreased the cell viability; also recorded: no significant toxicity | 0.04 | 2 | slight decrease of the cell viability | rendered cisplatin-resistant tumor cells almost completely sensitive |  |  |  |  |  |  |  |  |  |  | 
CC1(C)C(/C=C/C=C/C=C/C=C2\N(CCCCS(=O)(=O)[O-])c3ccc4ccccc4c3C2(C)C)=[N+](CCCCS(=O)(=O)[O-])c2ccc3ccccc3c21.[Na+] [ICG, Indocyanine green] |  |  |  |  | rendered cisplatin-resistant tumor cells almost completely sensitive | no significant toxicity |  |  |  |  |  |  |  |  |  | 
N.N.[Cl][Pt][Cl] [cisplatin, cis-diamminedichloroplatinum(II)] |  |  |  |  |  |  | accumulation of cells in the G1 phase | 20 | decreased the cell survival rates in a dose-dependent manner | no SSBs and DSBs but intrastrand cross links only; also recorded: intrastrand cross links only, with no SSBs or DSBs | 3.61 | 9 | 6 | 38 | accumulate in the G2/M phase | strong resistance

Source: US20120156311A1, “COMBINATION THERAPY FOR CANCER COMPRISING A PLATINUM-BASED ANTINEOPLASTIC AGENT AND A BIOCOMPATIBLE ELECTRON DONOR” (priority 2009, published 2012)
